The numbers were not newly measured in patent US20070117837A1, “Process for the preparation of amorphous form of a platelet aggregation inhibitor drug” (EGIS GYOGYSZERGYAR RT., priority 2003, published 2007), which cites them from elsewhere.

For this data set the following is noted: amorphous form compared with its morphologically uniform crystalline forms.

Consider `CC(C)c1c(C(=O)Nc2ccccc2)c(-c2ccccc2)c(-c2ccc(F)cc2)n1CC[C@@H](O)C[C@@H](O)CC(=O)O` [atorvastatine calcium], for which the biological availability result was “better”.
